From patent US11572371B2, “BRD4 inhibitor” (HINOVA PHARMACEUTICALS INC., priority 2017, dated 2023) come the findings set out here.

SMILES strings stand for the structures.

The first experiment has as its system CWR22RV1 cells. The experiment can be described thus: Inhibition of CWR22RV1 cell proliferation (CCK-8). In kind it is cell-based. As to conditions: Homo sapiens, CWR22Rv1, 144 h, read-out: IC50 on CWR22RV1. The method, then:
Test Example 2 Biological Determination of the Inhibitory Effect of the Compound on CWR22RV1 Cell Proliferation
Experimental Materials: • CWR22RV1 cell line (Cell bank of Chinese Academy of Sciences, TCHu100) • FBS (Gibco, Cat. No. 10099-141) • 0.01M PBS (Biosharp, Cat. No. 162262) • RIPM1640 (Hyclone, Cat. No. 308090.01) • Penicillin-Streptomycin (Hyclone, Cat. No. SV30010) • Cell counting kit-8(Signalway Antibody, Cat. No. CP002) • DMSO (Sigma, Cat. No. D5879) • Centrifuge Tube, 15 ml (Excell Bio, Cat. No. CS015-0001) • Cell Culture Dish, (Excell Bio, Cat. No. CS016-0128) • 96-well cell culture cluster (Corning, Cat. No. 3599)
(1) CWR22RV1 cells were subcultured with cell culture medium, and well-growth cells were inoculated in 96-well plates, with 80 μL per well. The number of cells in each well was 1500, and the plate was cultured overnight in a 37° C., 5% CO2 cell incubator.
(2) The drug was prepared as a 30 mM stock solution using dimethyl sulfoxide (DMSO). before use, the stock solution was diluted 3 times with DMSO, and then diluted by a 3 times gradient to obtain 9 concentration gradients. The compound at each concentration was further diluted 200 times with the culture solution (to ensure that the DMSO concentration in the culture system was 0.1%), and each concentration was repeated 2 wells. 20 μL of the diluted compound was added to the cell culture wells (with final concentrations of 10 μM, 3.3 μM, 1.1 μM . . . ), and gently shaked to mix. In addition, three negative control wells containing only cells and three blank control wells containing only culture medium (6 wells each containing 20 μL DMSO 200-fold diluted with culture medium) were set.
(1) After being cultured for 6 days, 10 μL CCK-8 was added to each well, and the cells were further cultured in a 5% CO2 cell incubator at 37° C. for 2.5 hours.
(2) The absorbance (OD value) was measured at 450 nm with a multifunctional microplate reader.
(3) The data were analyzed with the Dose-response-inhibition equation in the software GraphPad Prism6, and IC50 values were obtained.
Usually IC50 stands for the concentration that gives 50% inhibition. Take `Cc1sc2c(c1C)C(c1ccc(Cl)cc1)=N[C@@H](Cc1nnc(C(C)(C)C)o1)c1nnc(C)n1-2` [Compound 23, (S)-2-(t-butyl)-5-((4-(4-chlorophenyl)-2,3,9-trimethyl-6H-thieno[3,2-f][1,2,4]triazolo[4,3-a][1,4]diaza-6-yl)methyl) -1,3,4-oxodiazole]: the IC50 is 179 nM.
Still for that read-out and setting: with `Cc1sc2c(c1C)C(c1ccc(Cl)cc1)=N[C@@H](Cc1nc(CCl)co1)c1nnc(C)n1-2` [Compound 27, 2-(4-(4-chlorophenyl)-2,3,9-trimethyl-6H-thieno[3,2-f][1,2,4]triazolo[4,3-a][1,4]diaza-6-yl)-4-chloromethyloxazole] the figure was 29 nM; with `Cc1sc2c(c1C)C(c1ccc(Cl)cc1)=N[C@@H](Cc1nnc(CO)o1)c1nnc(C)n1-2` [Compound 7, (S)-(5-((4-(4-chlorophenyl)-2,3,9-trimethyl-6H-thieno[3,2-f][1,2,4]triazolo[4,3-a][1,4]diaza-6-yl)methyl)-1,3,4-oxodiazole-2-yl)methanol], 89 nM.
Still for that read-out and setting: the same measure for `Cc1sc2c(c1C)C(c1ccc(Cl)cc1)=N[C@@H](Cc1nncn1C(C)C)c1nnc(C)n1-2` [Compound 25, (S)-4-(4-chlorophenyl)-6-((4-isopropyl-4H-1,2,4--3-yl)methyl)-2,3,9-trimethyl-6H-thieno[3,2-f][1,2,4]triazolo[4,3-a][1,4]diazepine]: 1310 nM; for `Cc1nnc(C[C@@H]2N=C(c3ccc(Cl)cc3)c3c(sc(C)c3C)-n3c(C)nnc32)o1` [Compound 21, (S)-2-((4-(4-chlorophenyl)-2,3 ,9-trimethyl-6H-thieno[3,2-f][1,2,4]triazolo[4,3-a][1,4]diaza-6-yl)methyl)-5-methyl-1,3,4-oxodiazole]: 33 nM.

Still in this experiment, the particulars now being: Homo sapiens, CWR22Rv1, 144 h; cultured for 6 days, CCK-8; read-out: IC50 on CWR22RV1.
For `Cc1noc(C[C@@H]2N=C(c3ccc(Cl)cc3)c3c(sc(C)c3C)-n3c(C)nnc32)n1` [Compound 30, (S)-5-((4-(4-chlorophenyl)-2,3,9-trimethyl-6H-thieno[3,2-f][1,2,4]triazolo[4,3-a][1,4]diaza-6-yl)methyl)-3-methyl-1,2,4-oxodiazole], the IC50 was determined as 47 nM.
As to `Cc1sc2c(c1C)C(c1ccc(Cl)cc1)=N[C@@H](Cc1nnc(CN3CCS(=O)(=O)CC3)o1)c1nnc(C)n1-2` [Compound 12, (S)-4-((5-((4-(4-chlorophenyl)-2,3,9-trimethyl-6H-thieno[3,2-f] [1,2,4]triazolo[4,3-a][1,4]diaza-6-yl)methyl)-1,3,4-oxodiazole-2-yl)methyl)thiomorpholine 1,1-dioxide], the IC50 worked out at 110 nM.
Take `Cc1sc2c(c1C)C(c1ccc(Cl)cc1)=N[C@@H](Cc1nnc(CN3CC(C(=O)O)C3)o1)c1nnc(C)n1-2` [Compound 17, (5)-1-((5-((4-(4-chlorophenyl)-2,3,9-trimethyl-6H-thieno[3,2-f][1,2,4]triazolo[4,3-a][1,4]diaza-6-yl)methyl)-1,3,4-oxodiazole-2-yl)methyl)azacyclobutane-3-carboxylic acid]: the IC50 came to 2380 nM.
On the same count and under the same terms, with `Cc1sc2c(c1C)C(c1ccc(Cl)cc1)=N[C@@H](Cc1nnc(CCl)o1)c1nnc(C)n1-2` [Compound 4, (S)-2-chloromethyl-5-((4-(4-chlorophenyl)-2,3,9-trimethyl-6H-thieno[3,2-f][1,2,4]triazolo[4,3-a][1,4]diaza-6-yl)methyl)-1,3,4-oxodiazole] the figure was 28 nM; with `Cc1sc2c(c1C)C(c1ccc(Cl)cc1)=N[C@@H](Cc1nnc(CN3CCC(C(=O)O)CC3)o1)c1nnc(C)n1-2` [Compound 16, (5)-1-((5-((4-(4-chlorophenyl)-2,3,9-trimethyl-6H-thieno[3,2-f][1,2,4]triazolo[4,3-a][1,4]diaza-6-yl)methyl)-1,3,4-oxodiazole-2-yl)methyl)piperidin-4-carboxylic acid], 2650 nM; with `Cc1sc2c(c1C)C(c1ccc(Cl)cc1)=N[C@@H](Cc1nnc(CNCCO)o1)c1nnc(C)n1-2` [Compound 14, (S)-2-(((5-((4-(4-chlorophenyl)-2,3,9-trimethyl-6H-thieno[3,2-f][1,2,4]triazolo[4,3-a][1,4]diaza-6-yl)methyl)-1,3,4-oxodiazole-2-yl)methyl)amino)ethanol], 163 nM.
Still for that read-out and setting: the same measure for `CC(=O)NCc1nnc(C[C@@H]2N=C(c3ccc(Cl)cc3)c3c(sc(C)c3C)-n3c(C)nnc32)o1` [Compound 9, (S)-N-((5-((4-(4-chlorophenyl)-2,3,9-trimethyl-6H-thieno[3,2-f][1,2,4]triazolo[4,3-a][1,4]diaza-6-yl)methyl)-1,3,4-oxodiazole-2-yl)methyl)acetylamine]: 110 nM; for `Cc1sc2c(c1C)C(c1ccc(Cl)cc1)=N[C@@H](Cc1nnc(CN3CC(O)C3)o1)c1nnc(C)n1-2` [Compound 18, (5)-1-((5-((4-(4-chlorophenyl)-2,3,9-trimethyl-6H-thieno[3,2-f][1,2,4]triazolo[4,3-a][1,4]diaza-6-yl)methyl)-1,3,4-oxodiazole-2-yl)methyl)azacyclobutane-3-ol]: 89 nM.
`Cc1sc2c(c1C)C(c1ccc(Cl)cc1)=N[C@@H](Cc1nnc(CNS(C)(=O)=O)o1)c1nnc(C)n1-2` [Compound 10, (S)-N-((5-((4-(4-chlorophenyl)-2,3,9-trimethyl-6H-thieno[3,2-f][1,2,4]triazolo[4,3-a][1,4]diaza-6-yl)methyl) -1,3,4-oxodiazole-2-yl)methyl) methanesulfonamide]: the IC50 is 63 nM.
The same measure, in the same setting: the same measure for `COCc1nnc(C[C@@H]2N=C(c3ccc(Cl)cc3)c3c(sc(C)c3C)-n3c(C)nnc32)o1` [Compound 5, (S)-2-((4-(4-chlorophenyl)-2,3,9-trimethyl-6H-thieno[3,2-f][1,2,4]triazolo[4,3-a][1,4]diaza-6-yl)methyl)-5-(methoxylmethyl)-1,3,4-oxodiazole]: 45 nM.
Regarding `C=CC(=O)NCc1nnc(C[C@@H]2N=C(c3ccc(Cl)cc3)c3c(sc(C)c3C)-n3c(C)nnc32)o1` [Compound 11, (S)-N-((5-((4-(4-chlorophenyl)-2,3,9-trimethyl-6H-thieno[3,2-f][1,2,4]triazolo[4,3-a][1,4]diaza-6-yl)methyl)-1,3,4-oxodiazole-2-yl)methyl)acrylamide], the IC50 was found to be 54 nM.
Still for that read-out and setting: with `COC(=O)C1CCN(Cc2nnc(C[C@@H]3N=C(c4ccc(Cl)cc4)c4c(sc(C)c4C)-n4c(C)nnc43)o2)CC1` [Compound 15, (S)-methyl-1-((5-((4-(4-chlorophenyl)-2,3,9-trimethyl-6H-thieno[3,2-f][1,2,4]triazolo[4,3-a][1,4]diaza-6-yl)methyl) -1,3,4-oxodiazole-2-yl)methyl)piperidin-4-carboxylic ester] the figure was 59 nM.
